{"source": "patent EP4609848A1", "about": "(I-D Actives, S.L., priority 2024, dated 2025)", "assay": "Phase solubility study with cyclodextrins (β-CDs, HP-β-CDs) in galega water, spectrophotometric titration", "type": "physicochemical", "description": "The inventors performed solubility studies in an aqueous media in the absence and presence of solvents and in the presence of increasing concentrations of different types of CDs (β-CDs and HP-β-CDs).\nAccording to the traditional interpretation, this study was carried out using the solubility method.\nOn the other hand, further sea buckthorn oil solubilization tests were performed with galega water solutions containing 80 mM HP-β-cyclodextrin and another solution with 10 mM β-cyclodextrin."}
{"smiles": "Oc1ccc(C=Cc2cc(O)cc(O)c2)cc1", "note": "[Resveratrol, resveratrol]", "values": [{"measurement": "solubility thermodynamic at 60 min", "setting": "25 °C, water, thermodynamic from solid", "value": 40, "unit": "µg/mL"}, {"measurement": "solubility of resveratrol", "setting": "in absence of CDs, galega water", "value": 25, "unit": "µg/mL"}]}
